Laboratory results published in ChEMBL document CHEMBL5390280, “Design, Synthesis, and Biological Evaluation of an Orally Bioavailable, Potent, and Selective ROCK2 Inhibitor for Psoriasis Treatment” (J Med Chem, 2023).
pIC50: −log10 of the molar value.

What was measured:
[1] = biological target: T1, Rho-associated protein kinase 2 (Homo sapiens, UniProt O75116); test: Inhibition of ROCK2 (unknown origin) by HTRF assay
[2] = Selectivity ratio of IC50 for ROCK1 (unknown origin) to IC50 for ROCK2 (unknown origin)
[3] = biological target: T2, Rho-associated protein kinase 1 (Homo sapiens, UniProt Q13464); test: Inhibition of ROCK1 (unknown origin) by HTRF assay
T2 sequence (Q13464 whole entry): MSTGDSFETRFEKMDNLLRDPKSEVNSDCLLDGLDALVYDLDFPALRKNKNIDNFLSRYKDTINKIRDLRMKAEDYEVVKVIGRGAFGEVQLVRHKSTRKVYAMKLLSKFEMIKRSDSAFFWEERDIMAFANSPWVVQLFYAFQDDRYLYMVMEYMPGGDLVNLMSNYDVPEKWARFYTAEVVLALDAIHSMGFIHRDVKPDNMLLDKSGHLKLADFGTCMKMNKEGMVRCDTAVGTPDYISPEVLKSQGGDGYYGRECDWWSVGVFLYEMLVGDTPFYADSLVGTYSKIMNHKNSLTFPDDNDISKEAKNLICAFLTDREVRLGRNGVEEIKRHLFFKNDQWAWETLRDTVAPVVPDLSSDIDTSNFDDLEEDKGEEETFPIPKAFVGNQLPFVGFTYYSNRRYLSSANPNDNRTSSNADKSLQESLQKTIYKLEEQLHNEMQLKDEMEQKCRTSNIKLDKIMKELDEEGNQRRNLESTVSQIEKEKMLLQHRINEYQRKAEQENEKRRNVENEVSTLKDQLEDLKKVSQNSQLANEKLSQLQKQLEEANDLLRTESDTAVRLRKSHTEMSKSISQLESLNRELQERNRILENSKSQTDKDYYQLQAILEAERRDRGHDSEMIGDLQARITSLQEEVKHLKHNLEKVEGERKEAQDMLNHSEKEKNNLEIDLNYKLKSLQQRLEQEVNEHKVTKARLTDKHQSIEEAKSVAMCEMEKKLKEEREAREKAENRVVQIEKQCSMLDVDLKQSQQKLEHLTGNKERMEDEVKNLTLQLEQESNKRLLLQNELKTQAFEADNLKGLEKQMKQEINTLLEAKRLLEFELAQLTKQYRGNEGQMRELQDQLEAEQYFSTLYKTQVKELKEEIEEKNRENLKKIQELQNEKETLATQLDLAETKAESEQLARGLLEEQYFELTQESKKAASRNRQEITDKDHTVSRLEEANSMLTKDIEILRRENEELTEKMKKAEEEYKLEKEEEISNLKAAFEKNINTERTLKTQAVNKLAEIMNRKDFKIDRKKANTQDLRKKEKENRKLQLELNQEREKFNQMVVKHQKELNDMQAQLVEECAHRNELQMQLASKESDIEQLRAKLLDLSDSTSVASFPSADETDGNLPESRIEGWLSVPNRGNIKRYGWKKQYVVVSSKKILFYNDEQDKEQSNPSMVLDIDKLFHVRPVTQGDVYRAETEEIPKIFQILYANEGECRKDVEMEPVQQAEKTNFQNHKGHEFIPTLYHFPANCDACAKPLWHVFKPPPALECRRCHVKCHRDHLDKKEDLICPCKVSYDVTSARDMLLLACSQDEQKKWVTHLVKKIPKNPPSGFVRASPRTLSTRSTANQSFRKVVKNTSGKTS

[4] = biological target: T1, Rho-associated protein kinase 2; test: Inhibition of ROCK2 (unknown origin)
[5] = biological target: T2, Rho-associated protein kinase 1; test: Inhibition of ROCK1 (unknown origin)

T1 sequence (O75116 whole entry): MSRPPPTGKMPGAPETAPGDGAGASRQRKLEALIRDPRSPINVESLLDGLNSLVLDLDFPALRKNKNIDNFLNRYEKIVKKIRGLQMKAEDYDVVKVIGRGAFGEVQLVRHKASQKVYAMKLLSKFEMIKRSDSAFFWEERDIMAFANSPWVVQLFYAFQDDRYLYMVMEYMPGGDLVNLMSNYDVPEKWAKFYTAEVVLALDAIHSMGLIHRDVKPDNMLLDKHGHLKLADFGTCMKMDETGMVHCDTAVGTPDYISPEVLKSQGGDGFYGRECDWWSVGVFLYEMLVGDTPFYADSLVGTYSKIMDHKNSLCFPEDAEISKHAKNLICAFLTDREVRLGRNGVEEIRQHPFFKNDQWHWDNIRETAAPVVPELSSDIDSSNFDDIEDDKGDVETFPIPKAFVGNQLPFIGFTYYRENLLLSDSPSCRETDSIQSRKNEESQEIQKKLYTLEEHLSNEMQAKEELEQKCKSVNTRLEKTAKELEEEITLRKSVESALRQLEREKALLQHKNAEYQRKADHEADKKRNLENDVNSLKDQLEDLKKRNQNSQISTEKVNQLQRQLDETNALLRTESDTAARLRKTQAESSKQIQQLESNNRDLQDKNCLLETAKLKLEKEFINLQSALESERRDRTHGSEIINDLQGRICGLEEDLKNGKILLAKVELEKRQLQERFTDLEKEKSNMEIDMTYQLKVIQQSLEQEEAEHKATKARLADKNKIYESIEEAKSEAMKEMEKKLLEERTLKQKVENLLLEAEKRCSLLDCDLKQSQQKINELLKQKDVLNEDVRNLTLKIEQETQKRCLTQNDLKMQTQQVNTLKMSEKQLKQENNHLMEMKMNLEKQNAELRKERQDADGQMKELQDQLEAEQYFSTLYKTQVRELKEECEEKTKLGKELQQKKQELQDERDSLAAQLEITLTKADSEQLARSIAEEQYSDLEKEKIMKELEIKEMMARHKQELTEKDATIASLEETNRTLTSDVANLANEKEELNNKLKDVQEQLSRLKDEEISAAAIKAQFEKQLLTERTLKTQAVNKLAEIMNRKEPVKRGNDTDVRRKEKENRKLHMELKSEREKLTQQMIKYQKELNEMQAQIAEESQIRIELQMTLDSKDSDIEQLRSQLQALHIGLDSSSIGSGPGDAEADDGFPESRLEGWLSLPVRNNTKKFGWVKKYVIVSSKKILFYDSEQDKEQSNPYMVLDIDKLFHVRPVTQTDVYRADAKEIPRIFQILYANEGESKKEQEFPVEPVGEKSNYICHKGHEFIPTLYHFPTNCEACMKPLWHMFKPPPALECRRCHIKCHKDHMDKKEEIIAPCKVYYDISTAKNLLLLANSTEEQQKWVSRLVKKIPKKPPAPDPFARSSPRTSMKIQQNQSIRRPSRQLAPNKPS

pIC50 [1] | Ratio IC50 [2] | pIC50 [3] | pIC50 [4] | pIC50 [5] | SMILES
7.11 |  |  |  |  | Nc1ccn(-c2cccc(CN[C@H]3CCC[C@@H](Nc4ccc5[nH]ncc5c4)C3)c2)c(=O)c1
7.88 | 16 | 6.68 |  |  | CCc1ccn(-c2cccc(CN[C@H]3CCC[C@H](Nc4ccc5[nH]ncc5c4)C3)c2)c(=O)c1C
7.92 | 68 | 6.09 |  |  | Cc1ccn(-c2cccc(CN[C@H]3CCC[C@@H](Nc4ccc5[nH]ncc5c4)C3)c2)c(=O)c1
8.30 |  |  |  |  | Nc1ccn(-c2ccc(CN3CCCC(Nc4ccc5[nH]ncc5c4)C3)cc2)c(=O)n1 (stereo not given)
6.86 | 1 | 6.99 |  |  | Cc1ccc(=O)n(-c2cccc(CN[C@H]3CCC[C@@H](Nc4ccc5[nH]ncc5c4)C3)c2)c1
8.70 |  |  |  |  | Nc1ccn(-c2ccc(CN3CCCCC(Nc4ccc5[nH]ncc5c4)C3)cc2)c(=O)n1 (stereo not given)
7.11 | 4 | 6.57 |  |  | N#Cc1ccn(-c2cccc(CN[C@H]3CCC[C@@H](Nc4ccc5[nH]ncc5c4)C3)c2)c(=O)c1
8.52 | 32 | 7.02 |  |  | O=c1cc(-c2ccccc2)ccn1-c1cccc(CN[C@H]2CCC[C@H](Nc3ccc4[nH]ncc4c3)C2)c1
7.06 | 3 | 6.56 |  |  | O=c1cc(F)ccn1-c1cccc(CN[C@H]2CCC[C@@H](Nc3ccc4[nH]ncc4c3)C2)c1
7.18 |  |  |  |  | Nc1nc(=O)n(-c2cccc(CN[C@H]3CCC[C@H](Nc4ccc5[nH]ncc5c4)C3)c2)cc1F
8.89 | 162 | 6.68 |  |  | CC(C)(C)c1ccn(-c2cccc(CN[C@H]3CCC[C@H](Nc4ccc5[nH]ncc5c4)C3)c2)c(=O)c1
7.59 | 7 | 6.77 |  |  | Cc1ccn(-c2cccc(CN[C@H]3CCC[C@H](Nc4ccc5[nH]ncc5c4)C3)c2)c(=O)c1
9.15 |  |  |  |  | Nc1ccn(-c2ccc(CNC3CCCC(Nc4ccc5[nH]ncc5c4)C3)cc2)c(=O)n1 (stereo not given)
6.36 |  |  |  |  | Cc1cc(=O)n(-c2cccc(CN[C@H]3CCC[C@@H](Nc4ccc5[nH]ncc5c4)C3)c2)cc1N
7.57 | 8 | 6.67 |  |  | Cc1cc(=O)n(-c2cccc(CN[C@H]3CCC[C@@H](Nc4ccc5[nH]ncc5c4)C3)c2)cc1F
7.44 | 6 | 6.68 |  |  | O=c1cc(F)ccn1-c1cccc(CN[C@H]2CCC[C@H](Nc3ccc4[nH]ncc4c3)C2)c1
6.82 | 5 | 6.09 |  |  | Cc1cccn(-c2cccc(CN[C@H]3CCC[C@@H](Nc4ccc5[nH]ncc5c4)C3)c2)c1=O
8.77 | 59 | 7.00 |  |  | O=c1cc(-c2ccccc2)ccn1-c1cccc(CN[C@H]2CCC[C@@H](Nc3ccc4[nH]ncc4c3)C2)c1

pIC50 [1] | Ratio IC50 [2] | pIC50 [3] | pIC50 [4] | pIC50 [5] | SMILES
7.45 | 4 | 6.82 |  |  | Cc1ccc(=O)n(-c2cccc(CN[C@H]3CCC[C@H](Nc4ccc5[nH]ncc5c4)C3)c2)c1
 |  |  | 7.92 | 6.82 | COc1cc(-c2cn[nH]c2)cc2c(=O)[nH]c(C3COc4ccc(OCCN(C)C)cc4C3)nc12 (stereo not given)
9.70 |  |  |  |  | Nc1ccn(-c2cccc(CNC3CCCC(Nc4ccc5[nH]ncc5c4)C3)c2)c(=O)n1 (stereo not given)
6.25 |  |  |  |  | Cc1cc(=O)n(-c2cccc(CN[C@H]3CCC[C@H](Nc4ccc5[nH]ncc5c4)C3)c2)cc1N
8.21 | 52 | 6.51 |  |  | CCc1ccn(-c2cccc(CN[C@H]3CCC[C@@H](Nc4ccc5[nH]ncc5c4)C3)c2)c(=O)c1C
7.13 | 9 | 6.19 |  |  | O=c1ccccn1-c1cccc(CN[C@H]2CCC[C@@H](Nc3ccc4[nH]ncc4c3)C2)c1
6.76 | 2 | 6.55 |  |  | O=c1cc(C(F)(F)F)ccn1-c1cccc(CN[C@H]2CCC[C@H](Nc3ccc4[nH]ncc4c3)C2)c1
8.80 | 216 | 6.47 |  |  | CC(C)(C)c1ccn(-c2cccc(CN[C@H]3CCC[C@@H](Nc4ccc5[nH]ncc5c4)C3)c2)c(=O)c1
6.68 | 5 | 6.01 |  |  | O=c1cc(C(F)(F)F)ccn1-c1cccc(CN[C@H]2CCC[C@@H](Nc3ccc4[nH]ncc4c3)C2)c1
7.27 |  |  |  |  | Nc1ccn(-c2cccc(CN[C@H]3CCC[C@H](Nc4ccc5[nH]ncc5c4)C3)c2)c(=O)c1
7.73 | 15 | 6.56 |  |  | Cc1cccn(-c2cccc(CN[C@H]3CCC[C@H](Nc4ccc5[nH]ncc5c4)C3)c2)c1=O
6.99 | 2 | 6.62 |  |  | NC(=O)c1ccn(-c2cccc(CN[C@H]3CCC[C@H](Nc4ccc5[nH]ncc5c4)C3)c2)c(=O)c1
7.37 | 4 | 6.79 |  |  | O=c1ccccn1-c1cccc(CN[C@H]2CCC[C@H](Nc3ccc4[nH]ncc4c3)C2)c1
7.14 |  |  |  |  | CC(C)CCC(=O)Nc1ccn([C@H]2CC[C@H](O[C@H]3O[C@H](C)[C@@H](N(C)C)[C@H](O)[C@H]3O)[C@@H](C)O2)c(=O)n1
9.00 |  |  |  |  | Nc1ccn(-c2cccc(CN3CCCC(Nc4ccc5[nH]ncc5c4)C3)c2)c(=O)n1 (stereo not given)
6.88 | 4 | 6.33 |  |  | NC(=O)c1ccn(-c2cccc(CN[C@H]3CCC[C@@H](Nc4ccc5[nH]ncc5c4)C3)c2)c(=O)c1
7.08 |  |  |  |  | Nc1nc(=O)n(-c2cccc(CN[C@H]3CCC[C@@H](Nc4ccc5[nH]ncc5c4)C3)c2)cc1F
